Experimental data reported in patent publication US10724101B2, “Biomarker SCNN1B for gastric cancer” (The Chinese University of Hong Kong, priority 2016, dated 2020).

Tested on: gastric cancer cell lines (AGS, KATOIII, MGC803, MKN28, MKN45 and SNU1) with silenced SCNN1B expression
Experiment: Demethylation treatment with 5-Aza; SCNN1B expression by semiquantitative RT-PCR
Format: cell-based, human
Conditions: 10 μM 5-Aza for 5 days; six cell lines with silenced SCNN1B; FIG. 4
Procedure: Semiquantitative RT-PCR was performed in a total volume of 25 μL reaction containing 1× Premix Ex Taq (Takara, Ohtsu, Japan) and 5-10 ng cDNA. The PCR program started with an initial denaturation at 95° C. for 10 min, followed by 27-35 cycles (95° C. for 30 sec, annealing temperature for 30 sec, and 72° C. for 30 sec) of amplification, with a final extension at 72° C. for 10 min. The PCR bands were visualized under ultraviolet light and photographed. The expression of the target gene was normalized by the expression of house-keeping gene β-actin, which served as an internal control.
Cells were seeded at a density of 1×10^5/100-mm dishes and grew for 24 hr. Cells were then treated with 10 μM 5-aza-2′-deoxycytidine (“5-Aza”) (Sigma-Aldrich) for 5 days. The 5-Aza was replenished every day. The gene expression of SCNN1B was evaluated using semiquantitative RT-PCR.

## Nc1ncn([C@H]2C[C@H](O)[C@@H](CO)O2)c(=O)n1 [5-Aza, 5-aza-2′-deoxycytidine]
  expression of SCNN1B after demethylation treatment: Restored expression of SCNN1B
